Patent US8293704B2, “Crystalline form of linaclotide” (priority 2009, dated 2012)
Bridge positions count the residues as written; N and C are the ends. Peptide text beside a SMILES is read from it.

Experiment: Solid-state chemical stability of amorphous and α-crystalline linaclotide (HPLC assay after storage at 40° C./75% RH)
Format: physicochemical
Conditions: for Degradation Products / Normalized Assay / Acetylation Product / Hydrolysis Product / Non-disulfide linked multimers / Water-Mediated Products: induction sealed 45 cc HDPE bottles; for Remaining fraction (not assay, not degradation products), may comprise multimers: 3 months at 40° C./75% RH
Method: The relative chemical purity and stability of amorphous and crystalline linaclotide was studied using reverse phase high performance liquid chromatography (HPLC). The chemical identification was conducted using reverse phase high performance liquid chromatography coupled with mass spectroscopy (HPLC-MS). The mass spectroscopic analysis was performed at Enhance MS scan (EMS) mode with positive ionization and a scan range (m/z) of 600-1600.
A Perkin Elmer series 200 LC instrument (Perkin Elmer, Waltham, Mass.) was used with a YMC Pro C18 column (150 mm×3.0 mm, 3 μm) (Waters Corporation, Milford, Mass.). The column temperature was set at 40° C. while the auto sampler temperature was maintained at 4° C. using a peltier tray. The injection volume was 50 μl. A gradient (0.6 ml/minute) run was used comprising of two solvents; A (97.9% Water, 2% Acetonitrile, 0.1% Trifluoroacetic Acid) and B (94.9% Acetonitrile, 5% Water, 0.1% Trifluoroacetic Acid). The gradient was set according to the scheme described in Table 10. The effluent was detected at 220 nm using a UV detector.
The solid-state chemical stability of the α-crystalline form of linaclotide was then compared to that of amorphous form linaclotide. Known quantities of test materials were placed in 45 cc high-density polyethylene bottles. The bottles were induction sealed and placed in 40° C./75% RH stability chamber. Two bottles were then withdrawn at the time points of 2 weeks, at 1 month, at 2 months, and at 3 months, and were analyzed after adequate dilution for assay.

[1] = 3 months storage, 40° C./75% RH

## C[C@@H]1NC(=O)[C@@H]2CCCN2C(=O)[C@H](CC(N)=O)NC(=O)[C@@H]2CSSC[C@H](N)C(=O)N[C@H]3CSSC[C@H](NC1=O)C(=O)N[C@@H]([C@@H](C)O)C(=O)NCC(=O)N[C@H](C(=O)N[C@@H](Cc1ccc(O)cc1)C(=O)O)CSSC[C@H](NC(=O)[C@H](Cc1ccc(O)cc1)NC(=O)[C@H](CCC(=O)O)NC3=O)C(=O)N2 [Amorphous Linaclotide, linaclotide] (H-CCEYCCNPACTGCY-OH; disulfide 1-6, 2-10, 5-13)
1 Month at 40° C./75% RH
  Degradation Products: 5.6 Wt %
  Normalized Assay: 79.1 Wt %
2 Months at 40° C./75% RH
  Degradation Products: 9.3 Wt %
  Normalized Assay: 74.5 Wt %
2 Weeks at 40° C./75% RH
  Degradation Products: 3.6 Wt %
  Normalized Assay: 84.0 Wt %
3 Months at 40° C./75% RH
  Degradation Products: 12.0 Wt %
  Normalized Assay: 68.8 Wt %
  Remaining fraction (not assay, not degradation products), may comprise multimers: 19.2%
[1]
  Acetylation Product: 2.39 Wt %
  Hydrolysis Product: 0.30 Wt %
  Non-disulfide linked multimers: 1.96 Wt %
  Water-Mediated Products: 7.00 Wt %
Initial, solid state
  Degradation Products: 2.1 Wt %
  Normalized Assay: 100.0 Wt %

## C[C@@H]1NC(=O)[C@@H]2CCCN2C(=O)[C@H](CC(N)=O)NC(=O)[C@@H]2CSSC[C@H](N)C(=O)N[C@H]3CSSC[C@H](NC1=O)C(=O)N[C@@H]([C@@H](C)O)C(=O)NCC(=O)N[C@H](C(=O)N[C@@H](Cc1ccc(O)cc1)C(=O)O)CSSC[C@H](NC(=O)[C@H](Cc1ccc(O)cc1)NC(=O)[C@H](CCC(=O)O)NC3=O)C(=O)N2 [α-Crystalline Linaclotide, linaclotide] (H-CCEYCCNPACTGCY-OH; disulfide 1-6, 2-10, 5-13)
1 Month at 40° C./75% RH
  Degradation Products: 3.8 Wt %
  Normalized Assay: 91.9 Wt %
2 Months at 40° C./75% RH
  Degradation Products: 5.1 Wt %
  Normalized Assay: 89.7 Wt %
2 Weeks at 40° C./75% RH
  Degradation Products: 2.6 Wt %
  Normalized Assay: 94.8 Wt %
3 Months at 40° C./75% RH
  Degradation Products: 7.5 Wt %
  Normalized Assay: 88.4 Wt %
Listed as α-form linaclotide
  Remaining fraction (not assay, not degradation products), may comprise multimers: 4.1%
[1]
  Acid-induced hydrolysis (in words): pronounced
  Acetylation Product: 0.31 Wt %
  Hydrolysis Product: 5.70 Wt %
  Non-disulfide linked multimers: 0.07 Wt %
  Water-Mediated Products: 0.40 Wt %
40° C./75% RH, up to 3 months
  Concentration of degradation products compared with amorphous linaclotide (in words): significantly lower concentration of degradation products
  Multimer formation compared with amorphous linaclotide (in words): significantly less multimer formation
  Stability profile compared with amorphous linaclotide (in words): substantially better stability profile than amorphous linaclotide
Initial, solid state
  Degradation Products: 2.4 Wt %
  Normalized Assay: 100.0 Wt %
